Measured values taken from patent US11033538B2, “Dosing regimens for the treatment of lysosomal storage diseases using pharmacological chaperones” (Amicus Therapeutics, Inc., priority 2007, dated 2021).
“And” between values parts separate entries of the source, which are not always exact repeats. Equal entries are not always repeated. Where two headings read alike, the source gives them in different places.

Tests used:
[1] = tested on: Fabry patients; experiment: Example 6, renal function (eGFR); type: in vivo, human; details: good responders
Protocol: Renal function was evaluated using glomerular filtration rate (GFR).
Renal function was measured using glomerular filtration rate (GFR) (MDRD equation was used to estimate GFR using serum creatinine adjusted for age, gender and race). Approximately half of all Fabry patients have an abnormally low GFR (<90 ml/min/1.73 m^2). […] As shown in FIG. 17A-B, the good responders maintained a mean eGFR within the normal eGFR range of 90-120 ml/min/1.73 m^2 during the entire treatment procedure (FIG. 17A), while the predicted mean eGFR level of untreated individual is projected to continue declining below 90 ml/min/1.73 m^2 (FIG. 17B).

[2] = Phase Ib twice-daily dose study of DGJ in healthy volunteers, plasma and urine pharmacokinetics; type: in vivo, human
Protocol: Subjects were housed in the treatment facility from 14 hours prior to dosing until 24 hours after dosing. Meals were controlled by schedule and subjects remained abulatory for 4 hours post drug administration
Blood samples (10 mL each) were collected in blood collection tubes containing EDTA before dosing and at the following times thereafter: 0.25, 0.5, 0.75, 1, 1.5, 2, 3, 4, 5, 6, 7, 8, 9, 10, 11 and 12 hours. Blood samples were cooled in an ice bath and centrifuged under refrigeration as soon as possible. Plasma samples were divided into two aliquots and stored at […]. pending assay. At the end of the study, all samples were transferred to MDS Pharma Services Analytical Laboratories (Lincoln) for analysis.

[3] = target: T1, α-GAL (Homo sapiens, UniProt P06280); type: in vivo
T1 construct: α-GAL activity was calculated in white blood cells (WBC); endogenous in cells; host or cells: white blood cells of healthy male volunteers
T1 sequence (P06280 32-429): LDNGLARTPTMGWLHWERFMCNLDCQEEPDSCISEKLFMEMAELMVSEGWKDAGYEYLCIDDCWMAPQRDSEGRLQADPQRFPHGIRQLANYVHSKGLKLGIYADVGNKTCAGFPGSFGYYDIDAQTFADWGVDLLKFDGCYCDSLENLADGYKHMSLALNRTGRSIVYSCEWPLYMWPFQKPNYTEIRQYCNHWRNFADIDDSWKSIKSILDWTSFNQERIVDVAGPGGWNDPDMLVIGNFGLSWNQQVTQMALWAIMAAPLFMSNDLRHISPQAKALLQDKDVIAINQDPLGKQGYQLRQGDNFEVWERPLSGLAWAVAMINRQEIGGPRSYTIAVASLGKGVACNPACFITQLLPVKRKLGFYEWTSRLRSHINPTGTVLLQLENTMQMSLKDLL
Protocol: A multiple-dose Phase I trial was conducted and consisted of a total of 16 healthy volunteers divided into two groups of eight subjects. […] All subjects in one group received placebo or 50 mg twice a day for seven days, and all subjects in the other group received placebo or 150 mg twice a day for seven days. Subjects were evaluated at the beginning of the study, on Day 7 after seven days of treatment and on Day 14 after a seven day washout period.
Blood samples (10 mL each) were collected in blood collection tubes containing EDTA and WBC extracted before dosing and at the following times thereafter: 100 hours, 150 hours, and 336 hours. Samples were treated as described above, and WBC α-GAL enzymatic activity levels were determined as described in Desnick, R. J. (ed) Enzyme therapy in genetic diseases. Vol 2. Alan R Liss, New York, pp 17-32. Statistical Analysis. Safety data including laboratory evaluations, physical exams, adverse events, ECG monitoring and vital signs assessments were summarized by treatment group and point of time of collection. Descriptive statistics (arithmetic mean, standard deviation, median, minimum and maximum) were calculated for quantitative safety data as well as for the difference to baseline. Frequency counts were compiled for classification of qualitative safety data. In addition, a shift table describing out of normal range shifts was provided for clinical laboratory results. A normal-abnormal shift table was also presented for physical exam results and ECGs.

[4] = tested on: α-GAL; experiment: Example 8, α-GAL activity in cell lines expressing Fabry missense mutations; type: cell-based
From the text: Cell lines were constructed to express one of 75 Fabry missense mutations. […] 20 of the 75 cell lines expressed a missense mutation corresponding to later-onset Fabry disease.

[5] = tested on: GL-3; experiment: Example 6, kidney biopsy GL-3 by mass spectroscopy; type: in vivo, human
Protocol: Four male patients received a single 150 mg Q.O.D for 12 weeks (Group B); while five male patients received 150 mg Q.O.D. for 24 weeks (Group C). Finally nine female patients were randomized to receive one of three dosages: 50, 150 or 250 mg Q.O.D for 12 weeks (Group D) (FIG. 8).
Kidney biopsies were performed at baseline, 12 weeks and 24 weeks post-treatment and evaluated for GL-3 deposits in various renal cells. GL-3 presence in the tissue was examined histologically as well as through the use of mass spectroscopy. Light microscopic analysis of kidney biopsies was performed, wherein the accumulation of GL-3 in the tissue was classified in a manner similar to the classification analysis performed in Kidney International, Vol. 62 (2002), pp. 1933-1946 which is hereby incorporated by reference. Cells were classified as containing no GL-3 accumulation (“0”); mild GL-3 accumulation (“1”); moderate GL-3 accumulation (“2”); or severe GL-3 accumulation (“3”).
Kidney GL-3 levels were assessed using histological and mass spectroscopic analysis. Kidney biopsies were examined in four of the “good” responders, two of the “moderate” responders, and two of the “non” responders. Accumulation of GL-3 was examined in three different kidney cell types: interstitial capillaries, distal tubules, and podocytes.

[6] = human, plasma, oral, 50 mg, 50 mg bid, Day 1
[7] = human, plasma, oral, 50 mg, 50 mg bid, Day 7
[8] = human, plasma, oral, 150 mg, 150 mg bid, Day 1
[9] = human, plasma, po, 150 mg, oral 150 mg DGJ hydrochloride

## OC[C@H]1NC[C@H](O)[C@@H](O)[C@H]1O [DGJ, (2R,3S,4R,5S)-2-(hydroxymethyl) piperdine-3,4,5-triol]
[1]
  mean eGFR maintained during the entire treatment: 90-120 ml/min/1.73 m^2
[2]; 50 mg bid, Day 1
  12 h cumulative renal excretion: 16% and 16 ± 6%
[2]; 50 mg bid, Day 7
  12 h cumulative renal excretion: 48% and 48 ± 7%
  Cmin: 0.4 ± 0.03 µM
[2]; 50 mg to 150 mg
  dose dependence of Cmax: increased in a dose-proportional manner
[2]; 150 mg bid, Day 1
  12 h cumulative renal excretion: 42% and 42 ± 7%
[2]; 150 mg bid, Day 7
  12 h cumulative renal excretion: 60% and 60 ± 5%
  Cmax: 10.8 ± 1.4 µM
  Cmin: 1.2 ± 0.1 µM
[2]; all dose levels
  time of peak concentrations, on average: approximately 3 hours
[2]; healthy male volunteers
  oral availability: orally available
[2]; [6]
  Cmax: 2.3 ± 0.3 µM
  Tmax: 2.9 ± 0.4 h
[2]; [7]
  Cmax: 3.9 ± 0.5 µM
  Tmax: 2.5 ± 0.4 h
[2]; [8]
  Cmax: 11.3 ± 1.5 µM
  Tmax: 3.1 ± 0.4 h
[2]; human, plasma, oral, 150 mg, 150 mg bid, Day 7
  Tmax: 2.9 ± 0.4 h
[2]; human, plasma, oral, 50 mg bid, Day 1, read-out: t½ (converted)
  half-life: 150 min
[2]; human, plasma, oral, 150 mg bid, Day 1, read-out: t½ (converted)
  half-life: 144 min
[2]; [9]
  Cmax: 9 µM
  Tmax: 3 h
[2]; human, plasma, po, 150 mg, read-out: Half-life (exponential decay) (converted)
  half-life: 180 min
[3]; 50 mg b.i.d. or 150 mg b.i.d.
  inhibition of WBC α-GAL enzymatic activity: did not inhibit WBC α-GAL enzymatic activity
[3]; 50 mg b.i.d., 100 hours
  WBC α-GAL enzymatic activity: 120 % pre-dose levels
[3]; 50 mg b.i.d., 150 hours
  WBC α-GAL enzymatic activity: 130 % pre-dose levels
[3]; 50 mg b.i.d., 336 hours
  WBC α-GAL enzymatic activity: 145 % pre-dose levels
[3]; 150 mg b.i.d., 100 hours
  WBC α-GAL enzymatic activity: 150 % pre-dose levels
[3]; 150 mg b.i.d., 150 hours
  WBC α-GAL enzymatic activity: 185 % pre-dose levels
[3]; 150 mg b.i.d., 336 hours
  WBC α-GAL enzymatic activity: 185 % pre-dose levels
[3]; 50 and 150 mg twice daily for 7 days
  GLA levels in white blood cell lysates: increased GLA levels
[3]; highest dose level (150 mg twice a day for seven days), healthy volunteers
  increase in levels of α-GAL in white blood cells: ~2 fold
[3]; highest dose level, after the last dose
  persistence of the α-GAL increase: maintained for at least seven days after the last dose
[4]; 47 of the 75 cell lines
  cell lines in which DGJ enhanced α-GAL activity: 63%
[4]; classic Fabry mutations, 34 of 57 cell lines
  cell lines with increase in enzymatic activity: 60%
[4]; later-onset Fabry mutations, 19 of 20 cell lines
  cell lines with increase in α-GAL activity: 95%
[5]; female
  expected good responders with kidney GL-3 decrease of greater than 10%: two of the five
[5]; female expected good responders
  mean decrease in kidney GL-3 levels (mass spectoanalysis): 20%
[5]; male good responders
  good responders with kidney GL-3 decrease of greater than 10%: 3
  mean decrease in kidney GL-3 levels (mass spectroanalysis): 28%
